Reference: ChEMBL document CHEMBL1909046, “DrugMatrix in vitro pharmacology data”

Experiments:
[1] = target: T1, Neuropeptide Y receptor type 2 (Homo sapiens, UniProt P49146); type: cell membranes, Membrane; conditions: kan-ts; further: in other assays of this panel Not Active means under 50% inhibition at 10 µM
T1 sequence (P49146 whole entry): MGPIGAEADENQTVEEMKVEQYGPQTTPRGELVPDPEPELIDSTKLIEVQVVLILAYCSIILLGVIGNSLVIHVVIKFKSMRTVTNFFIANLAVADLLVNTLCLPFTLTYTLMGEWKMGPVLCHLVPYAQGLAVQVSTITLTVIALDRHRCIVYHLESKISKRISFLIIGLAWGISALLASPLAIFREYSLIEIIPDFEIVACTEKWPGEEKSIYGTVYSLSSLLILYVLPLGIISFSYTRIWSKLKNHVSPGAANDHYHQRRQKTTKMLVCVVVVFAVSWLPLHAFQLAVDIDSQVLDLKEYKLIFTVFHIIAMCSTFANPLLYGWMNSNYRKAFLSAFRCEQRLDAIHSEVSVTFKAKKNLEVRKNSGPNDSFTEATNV

[2] = DRUGMATRIX: GABAA, Muscimol, Central radioligand binding (ligand: [3H] Muscimol); type: cell membranes, Rattus norvegicus, Wistar, Brain, Membrane; conditions: Not Active = under 50% inhibition at 10 µM
Adenosine receptor A2a = Adenosine receptor A2a (Homo sapiens, UniProt P29274); assay: DRUGMATRIX: Adenosine A2A radioligand binding (ligand: […]); type: cell membranes, HEK293, Membrane; conditions: hek293; Not Active = under 50% inhibition at 10 µM
Adenosine receptor A2a, sequence (P29274 whole entry): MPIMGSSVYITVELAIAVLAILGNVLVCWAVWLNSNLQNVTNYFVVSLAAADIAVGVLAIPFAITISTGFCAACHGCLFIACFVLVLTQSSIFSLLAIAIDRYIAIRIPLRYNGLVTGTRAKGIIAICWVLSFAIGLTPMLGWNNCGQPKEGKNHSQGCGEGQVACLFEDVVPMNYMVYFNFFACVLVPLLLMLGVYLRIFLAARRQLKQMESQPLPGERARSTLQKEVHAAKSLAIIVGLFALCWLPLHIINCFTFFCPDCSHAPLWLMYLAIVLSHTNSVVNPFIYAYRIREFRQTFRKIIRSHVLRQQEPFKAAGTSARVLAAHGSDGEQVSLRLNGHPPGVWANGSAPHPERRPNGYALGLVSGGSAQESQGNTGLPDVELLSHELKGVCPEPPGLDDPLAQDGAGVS

[3] = target: Matrix metalloproteinase-9 (Homo sapiens, UniProt P14780); type: cell-based;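 further: inhibition of isolated MMP-9 enzyme activity toward a synthetic peptide substrate, from the DrugMatrix protease screening panel; in other assays of this panel Not Active means under 50% inhibition at 10 µM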
Matrix metalloproteinase-9, sequence (P14780 whole entry): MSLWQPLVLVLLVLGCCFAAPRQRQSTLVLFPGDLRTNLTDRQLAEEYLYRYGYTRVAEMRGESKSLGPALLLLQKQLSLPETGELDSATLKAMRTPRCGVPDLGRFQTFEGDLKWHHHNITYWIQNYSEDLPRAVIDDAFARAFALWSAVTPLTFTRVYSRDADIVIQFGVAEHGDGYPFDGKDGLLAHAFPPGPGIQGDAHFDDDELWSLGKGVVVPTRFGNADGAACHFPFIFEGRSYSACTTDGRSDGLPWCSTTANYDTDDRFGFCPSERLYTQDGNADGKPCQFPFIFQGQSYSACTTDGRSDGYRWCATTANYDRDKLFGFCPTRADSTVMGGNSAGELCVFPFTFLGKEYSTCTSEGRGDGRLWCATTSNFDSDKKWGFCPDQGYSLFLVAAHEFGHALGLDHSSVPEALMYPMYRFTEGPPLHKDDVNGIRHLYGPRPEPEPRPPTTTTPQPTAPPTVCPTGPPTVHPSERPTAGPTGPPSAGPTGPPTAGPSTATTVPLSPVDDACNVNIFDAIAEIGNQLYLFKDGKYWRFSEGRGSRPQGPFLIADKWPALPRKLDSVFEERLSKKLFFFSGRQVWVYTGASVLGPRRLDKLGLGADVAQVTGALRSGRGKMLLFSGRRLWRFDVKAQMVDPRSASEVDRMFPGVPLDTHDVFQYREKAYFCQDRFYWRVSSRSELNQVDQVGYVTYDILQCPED

[4] = target: T2, Alpha-1B adrenergic receptor (Rattus norvegicus, UniProt P15823); assay: DRUGMATRIX: Alpha-1B adrenergic receptor radioligand binding (ligand: prazosin); type: cell membranes, Wistar, Liver, Membrane; conditions: Not Active = under 50% inhibition at 10 µM
T2 sequence (P15823 whole entry): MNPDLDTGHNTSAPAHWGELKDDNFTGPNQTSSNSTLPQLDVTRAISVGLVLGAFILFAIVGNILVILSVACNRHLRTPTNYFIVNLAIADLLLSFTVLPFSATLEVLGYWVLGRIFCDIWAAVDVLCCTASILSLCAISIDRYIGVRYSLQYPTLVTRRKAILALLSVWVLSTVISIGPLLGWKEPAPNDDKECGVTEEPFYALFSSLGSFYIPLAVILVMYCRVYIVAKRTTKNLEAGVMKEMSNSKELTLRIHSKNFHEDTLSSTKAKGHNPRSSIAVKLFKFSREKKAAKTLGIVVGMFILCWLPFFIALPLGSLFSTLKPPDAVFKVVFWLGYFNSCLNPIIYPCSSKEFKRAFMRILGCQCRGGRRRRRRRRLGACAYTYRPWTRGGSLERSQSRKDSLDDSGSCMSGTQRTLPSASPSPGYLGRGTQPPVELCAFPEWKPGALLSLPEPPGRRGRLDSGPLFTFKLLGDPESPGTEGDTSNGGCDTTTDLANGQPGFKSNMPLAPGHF

[5] = target: T3, C-C chemokine receptor type 4 (Homo sapiens, UniProt P51679); type: cell membranes, Membrane; conditions: chem-1; further: in other assays of this panel Not Active means under 50% inhibition at 10 µM
T3 sequence (P51679 whole entry): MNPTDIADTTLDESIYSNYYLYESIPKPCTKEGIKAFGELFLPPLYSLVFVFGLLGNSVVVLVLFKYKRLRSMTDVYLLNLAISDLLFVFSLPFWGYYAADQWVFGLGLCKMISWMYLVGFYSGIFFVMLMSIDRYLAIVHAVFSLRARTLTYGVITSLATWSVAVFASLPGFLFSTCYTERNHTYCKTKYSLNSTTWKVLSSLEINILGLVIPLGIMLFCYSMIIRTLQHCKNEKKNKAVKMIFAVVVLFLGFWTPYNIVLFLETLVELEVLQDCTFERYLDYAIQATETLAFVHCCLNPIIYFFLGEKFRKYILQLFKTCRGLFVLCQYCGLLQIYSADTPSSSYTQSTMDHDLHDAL

Cytochrome P450 2C19 = Cytochrome P450 2C19 (Homo sapiens, UniProt P33261); conditions: bti-tn-5b1-4; further: in other assays of this panel Not Active means under 50% inhibition at 10 µM
Cytochrome P450 2C19, sequence (P33261 whole entry): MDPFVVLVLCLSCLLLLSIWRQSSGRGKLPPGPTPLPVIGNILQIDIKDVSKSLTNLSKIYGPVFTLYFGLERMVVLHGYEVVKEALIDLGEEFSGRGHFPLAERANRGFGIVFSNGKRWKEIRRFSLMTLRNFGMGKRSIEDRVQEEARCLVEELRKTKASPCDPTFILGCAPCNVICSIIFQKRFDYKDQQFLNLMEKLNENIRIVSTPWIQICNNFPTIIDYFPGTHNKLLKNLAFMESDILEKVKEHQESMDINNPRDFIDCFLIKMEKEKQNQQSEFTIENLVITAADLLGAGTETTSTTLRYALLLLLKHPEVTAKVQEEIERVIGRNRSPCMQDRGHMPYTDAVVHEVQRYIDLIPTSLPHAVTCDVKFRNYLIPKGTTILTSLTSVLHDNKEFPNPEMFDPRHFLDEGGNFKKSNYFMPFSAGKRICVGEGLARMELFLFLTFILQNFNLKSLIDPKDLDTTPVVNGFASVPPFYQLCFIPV

CCOc1nc2cccc(C(=O)O)c2n1Cc1ccc(-c2ccccc2-c2nnn[nH]2)cc1
Not Active: IC50 [1] | IC50 [2] | Ki [2] | IC50 (Adenosine receptor A2a) | IC50 [3] | IC50 [4] | IC50 [5]

O=C(O)CCCc1cccs1
Not Active: IC50 [1] | IC50 [2] | Ki [2] | IC50 (Adenosine receptor A2a) | IC50 [3] | IC50 [4] | IC50 [5] | IC50 (Cytochrome P450 2C19) | Ki (Cytochrome P450 2C19)

COc1ccccc1N
Not Active: IC50 [1] | IC50 [2] | Ki [2] | IC50 (Adenosine receptor A2a) | IC50 [3] | IC50 [4] | IC50 [5] | IC50 (Cytochrome P450 2C19) | Ki (Cytochrome P450 2C19)

O=C(c1ccccc1F)N1CCC(Cc2ccccc2)CC1
Not Active: IC50 [1] | IC50 [2] | Ki [2] | IC50 (Adenosine receptor A2a) | IC50 [3] | IC50 [4] | IC50 [5]

Cc1c(O)cccc1C(=O)N[C@@H](CSc1ccccc1)[C@H](O)CN1C[C@H]2CCCC[C@H]2C[C@H]1C(=O)NC(C)(C)C
Not Active: IC50 [1] | IC50 [2] | Ki [2] | IC50 (Adenosine receptor A2a) | IC50 [3] | IC50 [4] | IC50 [5] | IC50 (Cytochrome P450 2C19) | Ki (Cytochrome P450 2C19)

CC(O)COC[C@H]1O[C@@H]2O[C@H]3[C@H](O)[C@@H](O)[C@@H](O[C@H]4[C@H](O)[C@@H](O)[C@@H](O[C@H]5[C@H](O)[C@@H](O)[C@@H](O[C@H]6[C@H](O)[C@@H](O)[C@@H](O[C@H]7[C@H](O)[C@@H](O)[C@@H](O[C@H]8[C@H](O)[C@@H](O)[C@@H](O[C@H]1[C@H](O)[C@H]2O)O[C@@H]8COCC(C)O)O[C@@H]7COCC(C)O)O[C@@H]6COCC(C)O)O[C@@H]5COCC(C)O)O[C@@H]4COCC(C)O)O[C@@H]3COCC(C)O (stereo partly drawn) [2-HYDROXYPROPYL-BETA-CYCLODEXTRIN]
Not Active: IC50 [1] | IC50 [2] | Ki [2] | IC50 (Adenosine receptor A2a) | IC50 [3] | IC50 [4] | IC50 [5] | IC50 (Cytochrome P450 2C19) | Ki (Cytochrome P450 2C19)

NC(=O)c1cccc(N)c1 [3-AMINOBENZAMIDE]
Not Active: IC50 [1] | IC50 [2] | Ki [2] | IC50 (Adenosine receptor A2a) | IC50 [3] | IC50 [4] | IC50 [5] | IC50 (Cytochrome P450 2C19) | Ki (Cytochrome P450 2C19)

NC12CC3CC(CC(C3)C1)C2 [AMANTADINE]
Not Active: IC50 [1] | IC50 [2] | Ki [2] | IC50 (Adenosine receptor A2a) | IC50 [3] | IC50 [4] | IC50 [5]

CC(C)c1c(C(=O)Nc2ccccc2)c(-c2ccccc2)c(-c2ccc(F)cc2)n1CC[C@@H](O)C[C@@H](O)CC(=O)O [ATORVASTATIN]
Not Active: IC50 [1] | IC50 [2] | Ki [2] | IC50 (Adenosine receptor A2a) | IC50 [3] | IC50 [4] | IC50 [5]

Cn1c(=O)c2c(ncn2C)n(C)c1=O [CAFFEINE]
Not Active: IC50 [1] | IC50 [2] | Ki [2] | IC50 [3] | IC50 [4] | IC50 [5] | IC50 (Cytochrome P450 2C19) | Ki (Cytochrome P450 2C19)

CC(C)(C(=O)O)c1ccc(C(O)CCCN2CCC(C(O)(c3ccccc3)c3ccccc3)CC2)cc1 (configuration not stated) [FEXOFENADINE]
Not Active: IC50 [1] | IC50 [2] | Ki [2] | IC50 (Adenosine receptor A2a) | IC50 [3] | IC50 [4] | IC50 [5]

CC(=O)OCC(=O)[C@@]12OC(C)(C)O[C@@H]1C[C@H]1[C@@H]3C[C@H](F)C4=CC(=O)C=C[C@]4(C)[C@@]3(F)[C@@H](O)C[C@@]12C [FLUOCINONIDE]
Not Active: IC50 [1] | IC50 [2] | Ki [2] | IC50 (Adenosine receptor A2a) | IC50 [3] | IC50 [4] | IC50 [5]

N[C@@H](Cn1ccc(=O)c(O)c1)C(=O)O [L-MIMOSINE]
Not Active: IC50 [1] | IC50 [2] | Ki [2] | IC50 (Adenosine receptor A2a) | IC50 [3] | IC50 [4] | IC50 [5]

C[C@@H]1C/C=C/C=C/C=C/C=C/[C@H](O[C@@H]2O[C@H](C)[C@@H](O)[C@H](N)[C@@H]2O)C[C@@H]2O[C@](O)(C[C@@H](O)C[C@H]3O[C@@H]3/C=C/C(=O)O1)C[C@H](O)[C@H]2C(=O)O [NATAMYCIN]
Not Active: IC50 [1] | IC50 [2] | Ki [2] | IC50 (Adenosine receptor A2a) | IC50 [3] | IC50 [4] | IC50 [5]

COc1ccc2c(c1OC)C(=O)O[C@@H]2[C@H]1c2c(cc3c(c2OC)OCO3)CCN1C [NOSCAPINE]
Not Active: IC50 [1] | IC50 [2] | Ki [2] | IC50 (Adenosine receptor A2a) | IC50 [3] | IC50 [4] | IC50 [5]

NNCCc1ccccc1 [PHENELZINE]
Not Active: IC50 [1] | IC50 [2] | Ki [2] | IC50 (Adenosine receptor A2a) | IC50 [3] | IC50 [4] | IC50 [5]

CCN(CC)CCNC(=O)c1ccc(N)cc1 [PROCAINAMIDE]
Not Active: IC50 [1] | IC50 [2] | Ki [2] | IC50 (Adenosine receptor A2a) | IC50 [3] | IC50 [4] | IC50 [5]

C[C@]12C=CC(=O)C=C1CC[C@H]1[C@@H]3C[C@@H](O)[C@](O)(C(=O)CO)[C@@]3(C)C[C@H](O)[C@@]12F [TRIAMCINOLONE]
Not Active: IC50 [1] | IC50 [2] | Ki [2] | IC50 (Adenosine receptor A2a) | IC50 [3] | IC50 [4] | IC50 [5]
